SMILES strings stand for the structures. Marks after values point to notes of the source that are not given here.

Common to all, as to assay type: in vivo
In test [1] the test system is cattle. As to the kind of experiment: 2002-03 cattle feed test: raw ribeye steak subjective color. As to conditions: 300 ppm in diet. The source says: (§1) Applicants also assessed the effects of antioxidant supplementation on beef quality in an experiment in which ground beef and steaks from cattle fed one of four dietary treatments were compared. Forty steers (average weight 1082 lbs.) were blocked by weight (heavy or light) and assigned to eight outdoor group pens. Pens were randomly assigned within weight blocks to four dietary treatments (two pens per dietary treatment): control, 300 ppm gamma-tocopherol, 150 ppm MT or 300 ppm MT. As in the swine and poultry feed trials, the MT supplement was obtained commercially from Fuji Chemical Industries (U.S.A.) Inc. of Robbinsville, N.J., and contained 7.5% alpha-, 12.3% gamma- and 3.0% delta-tocotrienol for a total MT content of 22.8 wt %, as well as 7.2% alpha-tocopherol. The control diet was not supplemented with even the NRC (1996) recommended level of vitamin E (15 to 60 ppm).
(§2) The steers were fed rolled corn diets with added cottonseed hulls that contained little or no vitamin E. The corn grain used in this trial was more than two years old so that it would be largely depleted of vitamin E. The steers were gradually adapted to an 80% grain-based diet and fed the low vitamin E diet for over one month prior to the start of the dietary supplementation period. Steers then were fed their respective dietary treatments for 54 days, starting Dec. 18, 2002 and ending Feb. 10, 2003.
(§3) The dietary treatments were top-dressed onto the feed and mixed with the morning daily feed. The target level for feeding gamma-tocopherol was calculated to be 2 g per animal per day. Mineral oil was used as a carrier for the gamma-tocopherol. The two target amounts of mixed tocotrienols were equivalent to, or half of, the gamma tocopherol level. The MT compounds were diluted with cornmeal to supply the required amount of mixed tocotrienols.
(§4) On the day following delivery of the beef rib sections to Kansas State University, ribs were boned out, vacuum packaged, and held at approximately (2° C.) until thirteen days postmortem, at which time the ribs were faced at the 13th rib region. The ribs were cut into 2.54 cm thick ribeye steaks, one steak from each rib to be used for color appraisal under retail display conditions and one steak for sensory evaluation. The steaks for sensory evaluation were vacuum-packaged and frozen.
(§5) The ribeye steaks utilized for color evaluation were placed onto 17S foam trays with meat, fish, and poultry pads (Dri-Loc AC-50) and wrapped with polyvinyl chloride film. The packaged steaks were placed under simulated retail display at 34±3° F. under 1614 lux (150±5 foot candles) light intensity in open-top display cases. The cases were programmed to defrost twice daily at 12-hour intervals. Case temperature was monitored using temperature recorders. An eight-member trained panel assigned subjective color and discoloration scores on days 0, 1, 2, 3, 4, 5 and 7. Pre-storage color was evaluated on an eight point scale. Panelists evaluated post-13 day storage color using a five-point scale with 0.5 intervals. Minolta color measurements were taken on days 0 and 7 using a Hunter Lab MiniScan™ Spectrophotometer (1.25 inch diameter aperture).

For test [2], the system named is cattle. As to the kind of experiment: 2002-03 cattle feed test: moisture, fat and TBARS content of raw ground beef patties. Particulars: 300 ppm in diet.
Excerpt: as §1, with “ppm). […]” for “ppm).”
(§6) The dietary treatments were top-dressed onto the feed and mixed with the morning daily feed. The target level for feeding gamma-tocopherol was calculated to be 2 g per animal per day. […]
Four pounds of lean and one pound of fat were harvested from each steer and mixed to produce ground beef patties with a targeted fat content of 20%. […] The pre- and post-display ground beef patties were analyzed for oxidative stability by determining their TBARS concentration.

Test [3] has as its system cattle. As to the kind of experiment: 2002-03 cattle feed test: TBARS content of raw ribeye steaks. Particulars: 300 ppm in diet.
Excerpt: as §1, with “The control diet was not supplemented with even the NRC (1996) recommended level of vitamin E (15 to 60 ppm).” left out
as §6
The ribeye steaks utilized for color evaluation were placed onto 17S foam trays with meat, fish, and poultry pads (Dri-Loc AC-50) and wrapped with polyvinyl chloride film. […] Case temperature was monitored using temperature recorders. […] Pre-storage color was evaluated on an eight point scale. Panelists evaluated post-13 day storage color using a five-point scale with 0.5 intervals. […]

For test [4], the system named is cattle. The experiment in a line: 2002-03 cattle feed test: raw ribeye steak Hunter Lab color evaluation.
Excerpt: as §1, §2, §3, §4, §5

Test [5] concerns cattle. The experiment in a line: 2002-03 cattle feed test: sensory characteristics of cooked ribeye steaks. As to conditions: freshly cooked ribeye steaks; scale of 1 to 8; 300 ppm in diet.
Excerpt: as §1, §2, §3, §4
The frozen ribeye steaks designated for sensory evaluation were thawed for >24 hours at 3-4° C. and cooked in a Blodgett oven set at 163° C. The steaks were turned at 40° C. and removed from the oven at 70° C. The cooked steaks were cut into 2.54 cm×1.25 cm×1.25 cm cubes. The cubes were placed in double boilers and held warm on burners set at 107° C. until serving. Each panelist received two cubes in random order with a maximum of eight samples per session. An eight-point scale with 0.5 increments was used to score sensory attributes, with 8 being most tender, flavorful, or juicy and 1 being the least tender, flavorful, or juicy.

Turning to `Cc1c(O)cc2c(c1C)O[C@](C)(CCC[C@H](C)CCC[C@H](C)CCCC(C)C)CC2` [GT, gamma-tocopherol], the subjective color score is reported as 4.34 in test [1] (Pre-storage, eight point scale (1.0 = Bleached red, 8.0 = Very dark red)); 2.19 in test [1] (post-13 day storage, display Day 0, five-point scale (1.0 = Very bright cherry red, 5.0 = Very dark red/purple to brown)); 2.28 in test [1] (post-13 day storage, display Day 1, five-point scale); 2.29 in test [1] (post-13 day storage, display Day 2, five-point scale); 2.61 in test [1] (post-13 day storage, display Day 3, five-point scale); 2.80^b in test [1] (post-13 day storage, display Day 4, five-point scale). The subjective color score is 3.02^b in test [1] (post-13 day storage, display Day 5, five-point scale) and 3.29^b in test [1] (post-13 day storage, display Day 7, five-point scale). Further, the TBARS content in test [2] (Post-display (5 days retail display)) is given as 0.663^ab Mg Malonaldehyde/1000 g ground beef; in test [2] (Pre-display), 0.173 Mg Malonaldehyde/1000 g ground beef; in test [3] (Post-display), 0.411^b Mg Malonaldehyde/1000 g steak; in test [3] (Pre-display), 0.076 Mg Malonaldehyde/1000 g steak. The “Pre-display pH” value in test [4] (300 ppm in diet) is given as 5.53. The “Hunter L” value in test [4] (display Day 0, 300 ppm in diet) is reported as 41.35; in test [4] (display Day 7, 300 ppm in diet), 40.03^b. Further, the Hunter a is reported as 32.82 in test [4] (display Day 0, 300 ppm in diet) and 30.26^b in test [4] (display Day 7, 300 ppm in diet). In addition, the Hunter b in test [4] (display Day 0, 300 ppm in diet) was 25.33; in test [4] (display Day 7, 300 ppm in diet), 23.35^b. Also, the Flavor intensity in test [5] is 5.9. The compound also registered a Juiciness in test [5] of 5.7. For the same compound, in test [5], the Off-flavor intensity was 7.7. For the same compound, the Overall tenderness in test [5] is given as 6.1^a. In addition, in test [5], the Warmed over flavor was 8.0.

The values above are taken from patent US20040266862A1, “Method of improving animal tissue quality by supplementing the animal diet with mixed tocotrienols” (priority 2003, published 2004).
